Results published in article PMC9005681, “Use of AD Informer Set compounds to explore validity of novel targets in Alzheimer's disease pathology” (Alzheimer's & Dementia : Translational Research & Clinical …, 2022).
“And” between values parts separate entries of the source, which are not always exact repeats. Equal entries are not always repeated.

Key:
Assay in all cases: PDSP GPCR panel primary binding assays at 10 μM
Details in all cases: primary assay
[1] = target: T1, cloned human or rodent CNS receptors, channels, and transporters (PDSP panel) (Homo sapiens, UniProt P08908)
T1 construct: expressed in transfected cells
T1 sequence (P08908 1-422): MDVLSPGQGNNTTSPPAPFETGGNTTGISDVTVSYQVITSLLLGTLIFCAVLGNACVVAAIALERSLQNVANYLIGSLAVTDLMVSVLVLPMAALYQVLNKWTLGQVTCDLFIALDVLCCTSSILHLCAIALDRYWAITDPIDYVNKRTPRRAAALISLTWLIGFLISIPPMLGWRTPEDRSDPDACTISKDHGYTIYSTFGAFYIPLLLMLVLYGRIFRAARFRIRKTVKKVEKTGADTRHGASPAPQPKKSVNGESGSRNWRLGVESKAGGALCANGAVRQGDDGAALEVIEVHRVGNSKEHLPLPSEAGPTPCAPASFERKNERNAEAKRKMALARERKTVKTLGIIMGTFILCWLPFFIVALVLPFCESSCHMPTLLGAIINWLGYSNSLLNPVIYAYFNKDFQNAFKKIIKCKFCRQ
Method in brief: (§1)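 Secondary binding curves (11 points, triplicate) were run at targets where the 10 μM primary screen, done in quadruplicate, displaced over 50% of radio-labelled standard ligand on average. Primary screening covered 46–47 cloned human or rodent CNS targets; H3, PBR and GABAA were not followed up.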

[2] = target: T2, cloned human or rodent CNS receptors, channels, and transporters (PDSP panel) (Homo sapiens, UniProt P08912)
T2 construct: expressed in transfected cells
T2 sequence (P08912 1-532): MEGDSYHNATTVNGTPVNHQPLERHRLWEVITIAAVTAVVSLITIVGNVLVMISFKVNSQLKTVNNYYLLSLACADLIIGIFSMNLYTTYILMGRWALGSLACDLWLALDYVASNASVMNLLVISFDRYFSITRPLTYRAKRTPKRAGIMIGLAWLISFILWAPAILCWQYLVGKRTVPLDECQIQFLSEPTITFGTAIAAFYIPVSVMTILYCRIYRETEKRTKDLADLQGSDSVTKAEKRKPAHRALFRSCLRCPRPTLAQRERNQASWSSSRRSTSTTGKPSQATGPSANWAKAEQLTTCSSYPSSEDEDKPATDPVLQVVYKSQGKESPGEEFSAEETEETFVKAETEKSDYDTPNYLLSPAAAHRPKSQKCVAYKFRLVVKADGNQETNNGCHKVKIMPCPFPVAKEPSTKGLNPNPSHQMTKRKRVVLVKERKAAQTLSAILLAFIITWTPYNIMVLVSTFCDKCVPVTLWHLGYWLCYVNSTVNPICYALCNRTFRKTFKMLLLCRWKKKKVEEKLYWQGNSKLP
Method in brief: as §1

[3] = target: T3, cloned human or rodent CNS receptors, channels, and transporters (PDSP panel) (Homo sapiens, UniProt P21917)
T3 construct: expressed in transfected cells
T3 sequence (P21917 1-419): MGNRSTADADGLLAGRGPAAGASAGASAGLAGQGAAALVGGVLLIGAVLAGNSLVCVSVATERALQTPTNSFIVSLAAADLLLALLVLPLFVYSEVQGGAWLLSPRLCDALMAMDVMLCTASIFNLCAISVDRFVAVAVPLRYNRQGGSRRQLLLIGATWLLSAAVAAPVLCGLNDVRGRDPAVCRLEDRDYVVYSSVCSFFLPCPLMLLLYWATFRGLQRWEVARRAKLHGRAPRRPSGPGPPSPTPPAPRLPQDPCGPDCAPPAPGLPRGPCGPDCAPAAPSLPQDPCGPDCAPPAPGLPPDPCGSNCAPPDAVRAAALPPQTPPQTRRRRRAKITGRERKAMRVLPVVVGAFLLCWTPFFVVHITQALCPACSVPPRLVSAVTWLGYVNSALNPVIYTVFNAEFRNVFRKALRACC
Method in brief: as §1

[4] = target: T4, cloned human or rodent CNS receptors, channels, and transporters (PDSP panel) (Homo sapiens, UniProt P28222)
T4 construct: expressed in transfected cells
Method in brief: as §1

[5] = target: T5, cloned human or rodent CNS receptors, channels, and transporters (PDSP panel) (Homo sapiens, UniProt P28223)
T5 construct: expressed in transfected cells
Method in brief: as §1

[6] = target: T6, cloned human or rodent CNS receptors, channels, and transporters (PDSP panel) (Homo sapiens, UniProt P31645)
T6 construct: expressed in transfected cells
Method in brief: as §1

[7] = target: T7, cloned human or rodent CNS receptors, channels, and transporters (PDSP panel) (Homo sapiens, UniProt P35367)
T7 construct: expressed in transfected cells
Method in brief: as §1

[8] = target: T8, cloned human or rodent CNS receptors, channels, and transporters (PDSP panel) (Homo sapiens, UniProt P41145)
T8 construct: expressed in transfected cells
Method in brief: as §1

[9] = target: T9, cloned human or rodent CNS receptors, channels, and transporters (PDSP panel) (Rattus norvegicus, UniProt P16257)
T9 construct: expressed in transfected cells
Method in brief: as §1

T5 sequence (P28223 whole entry): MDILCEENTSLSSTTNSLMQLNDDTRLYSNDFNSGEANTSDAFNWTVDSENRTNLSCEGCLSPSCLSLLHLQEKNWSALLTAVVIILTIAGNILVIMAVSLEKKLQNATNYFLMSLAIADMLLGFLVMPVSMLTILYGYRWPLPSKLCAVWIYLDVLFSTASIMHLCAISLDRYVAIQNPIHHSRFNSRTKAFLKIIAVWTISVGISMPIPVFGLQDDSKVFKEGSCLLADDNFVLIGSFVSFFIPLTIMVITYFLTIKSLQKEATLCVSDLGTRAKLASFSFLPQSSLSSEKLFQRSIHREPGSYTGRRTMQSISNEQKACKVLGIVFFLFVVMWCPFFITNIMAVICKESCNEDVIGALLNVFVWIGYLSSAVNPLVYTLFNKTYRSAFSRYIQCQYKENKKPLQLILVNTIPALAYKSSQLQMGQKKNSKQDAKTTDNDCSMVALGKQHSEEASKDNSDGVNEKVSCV
T4 sequence (P28222 whole entry): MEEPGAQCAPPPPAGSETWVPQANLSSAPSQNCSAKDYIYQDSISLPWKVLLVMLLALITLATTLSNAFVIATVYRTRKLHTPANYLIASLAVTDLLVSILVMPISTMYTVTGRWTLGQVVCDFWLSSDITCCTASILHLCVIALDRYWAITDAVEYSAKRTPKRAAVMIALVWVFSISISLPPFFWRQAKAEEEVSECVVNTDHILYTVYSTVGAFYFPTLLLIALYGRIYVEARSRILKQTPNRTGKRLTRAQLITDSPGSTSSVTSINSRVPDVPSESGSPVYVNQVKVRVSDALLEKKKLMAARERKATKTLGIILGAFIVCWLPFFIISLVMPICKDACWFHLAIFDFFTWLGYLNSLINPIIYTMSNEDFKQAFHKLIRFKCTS
T8 sequence (P41145 whole entry): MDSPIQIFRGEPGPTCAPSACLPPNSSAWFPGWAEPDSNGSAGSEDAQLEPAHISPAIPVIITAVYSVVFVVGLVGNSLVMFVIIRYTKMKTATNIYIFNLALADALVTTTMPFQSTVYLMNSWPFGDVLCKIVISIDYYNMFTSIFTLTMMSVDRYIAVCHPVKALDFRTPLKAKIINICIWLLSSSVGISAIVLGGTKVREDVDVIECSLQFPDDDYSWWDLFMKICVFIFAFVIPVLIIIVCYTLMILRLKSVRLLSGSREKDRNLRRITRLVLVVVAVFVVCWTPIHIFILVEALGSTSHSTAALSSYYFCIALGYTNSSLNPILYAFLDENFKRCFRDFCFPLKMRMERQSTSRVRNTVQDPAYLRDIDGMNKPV
T7 sequence (P35367 whole entry): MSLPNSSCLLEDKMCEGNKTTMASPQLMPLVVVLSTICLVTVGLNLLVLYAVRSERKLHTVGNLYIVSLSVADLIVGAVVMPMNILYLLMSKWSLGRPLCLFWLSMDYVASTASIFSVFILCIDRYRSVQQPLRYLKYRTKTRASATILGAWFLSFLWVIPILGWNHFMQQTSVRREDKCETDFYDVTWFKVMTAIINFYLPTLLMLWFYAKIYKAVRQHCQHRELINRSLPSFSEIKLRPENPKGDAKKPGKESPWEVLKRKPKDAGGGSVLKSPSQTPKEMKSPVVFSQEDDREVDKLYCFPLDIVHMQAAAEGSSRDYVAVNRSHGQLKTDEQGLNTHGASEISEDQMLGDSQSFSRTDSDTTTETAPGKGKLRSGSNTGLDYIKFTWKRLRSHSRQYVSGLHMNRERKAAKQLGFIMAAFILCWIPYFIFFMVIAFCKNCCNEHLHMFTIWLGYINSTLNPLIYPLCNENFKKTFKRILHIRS
T6 sequence (P31645 whole entry): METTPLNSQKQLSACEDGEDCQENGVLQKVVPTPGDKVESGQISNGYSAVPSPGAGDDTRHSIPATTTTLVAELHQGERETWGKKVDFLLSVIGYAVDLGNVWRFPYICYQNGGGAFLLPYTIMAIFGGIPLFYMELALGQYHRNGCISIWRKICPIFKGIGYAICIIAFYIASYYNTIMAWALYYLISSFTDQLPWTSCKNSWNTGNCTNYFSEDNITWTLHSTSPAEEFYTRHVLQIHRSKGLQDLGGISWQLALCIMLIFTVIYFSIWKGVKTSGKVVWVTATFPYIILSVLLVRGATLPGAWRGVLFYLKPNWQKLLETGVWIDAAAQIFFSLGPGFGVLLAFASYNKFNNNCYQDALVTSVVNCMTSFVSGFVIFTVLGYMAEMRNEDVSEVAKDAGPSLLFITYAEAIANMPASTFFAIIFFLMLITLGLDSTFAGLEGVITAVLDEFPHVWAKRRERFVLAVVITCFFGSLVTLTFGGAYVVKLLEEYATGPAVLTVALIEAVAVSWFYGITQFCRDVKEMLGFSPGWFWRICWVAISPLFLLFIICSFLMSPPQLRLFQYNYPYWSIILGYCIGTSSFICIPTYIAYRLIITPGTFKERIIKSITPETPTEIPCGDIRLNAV

MDL 28170 [UNC10302675A]
Mean % ([1]; 5-HT1A, mean inhibition): 2.42%
Inhibition 1 ([1]; 5-HT1A, replicate 1): 14.05%
Inhibition 2 ([1]; 5-HT1A, replicate 2): 0.78%
Inhibition 3 ([1]; 5-HT1A, replicate 3): -1.81%
Inhibition 4 ([1]; 5-HT1A, replicate 4): -3.36%
Mean % ([2]; M5, mean inhibition): -3.08%
Inhibition 1 ([2]; M5, replicate 1): 7.51%
Inhibition 2 ([2]; M5, replicate 2): -10.6%
Inhibition 3 ([2]; M5, replicate 3): 0.26%
Inhibition 4 ([2]; M5, replicate 4): -9.5%
Mean % ([3]; D4, mean inhibition): 0.31%
Inhibition 1 ([3]; D4, replicate 1): 10.14%
Inhibition 2 ([3]; D4, replicate 2): -3.06%
Inhibition 3 ([3]; D4, replicate 3): -7.08%
Inhibition 4 ([3]; D4, replicate 4): 1.24%
Mean % ([4]; 5-HT1B, mean inhibition): 7.62%
Inhibition 1 ([4]; 5-HT1B, replicate 1): 14.84%
Inhibition 2 ([4]; 5-HT1B, replicate 2): 5.24%
Inhibition 3 ([4]; 5-HT1B, replicate 3): 9.43%
Inhibition 4 ([4]; 5-HT1B, replicate 4): 0.96%
Mean % ([5]; 5-HT2A, mean inhibition): -2.25%
Inhibition 1 ([5]; 5-HT2A, replicate 1): 10.17%
Inhibition 2 ([5]; 5-HT2A, replicate 2): -7.92%
Inhibition 3 ([5]; 5-HT2A, replicate 3): -7.75%
Inhibition 4 ([5]; 5-HT2A, replicate 4): -3.48%
Mean % ([6]; SERT, mean inhibition): -4.02% and -0.38%
Inhibition 1 ([6]; SERT, replicate 1): 19.12% and 14.24%
Inhibition 2 ([6]; SERT, replicate 2): -10.98% and 6.75%
Inhibition 3 ([6]; SERT, replicate 3): -20.47% and -17.68%
Inhibition 4 ([6]; SERT, replicate 4): -3.73% and -4.82%
Mean % ([7]; H1, mean inhibition): 62.36%
Inhibition 1 ([7]; H1, replicate 1): 85.46%
Inhibition 2 ([7]; H1, replicate 2): 73.14%
Inhibition 3 ([7]; H1, replicate 3): 49.84%
Inhibition 4 ([7]; H1, replicate 4): 41%
Mean % ([8]; KOR, mean inhibition): 8.82%
Inhibition 1 ([8]; KOR, replicate 1): 3.47%
Inhibition 2 ([8]; KOR, replicate 2): 2.13%
Inhibition 3 ([8]; KOR, replicate 3): 10.86%
Inhibition 4 ([8]; KOR, replicate 4): 18.81%
Mean % ([9]; PBR, mean inhibition): 14.47% and 16.31%
Inhibition 1 ([9]; PBR, replicate 1): 31.01% and 31.3%
Inhibition 2 ([9]; PBR, replicate 2): 3.06% and 12.16%
Inhibition 3 ([9]; PBR, replicate 3): 7.19% and 13.84%
Inhibition 4 ([9]; PBR, replicate 4): 16.6% and 7.94%

CCCCNc1ncc2c(-c3ccc(CN4CCN(C)CC4)cc3)cn([C@H]3CC[C@H](O)CC3)c2n1 [UNC2025C, UNC2025]
Inhibition 1 ([1]; Receptor 5-HT1A, 10 μM): 9.39%
Inhibition 2 ([1]; Receptor 5-HT1A, 10 μM): -18.53%
Inhibition 3 ([1]; Receptor 5-HT1A, 10 μM): 19.05%
Inhibition 4 ([1]; Receptor 5-HT1A, 10 μM): 31.46%
Mean % ([1]; Receptor 5-HT1A, 10 μM, mean of Inhibition 1-4): 10.34%
Inhibition 1 ([2]; Receptor M5, 10 μM): 16.16%
Inhibition 2 ([2]; Receptor M5, 10 μM): 21.19%
Inhibition 3 ([2]; Receptor M5, 10 μM): 19.69%
Inhibition 4 ([2]; Receptor M5, 10 μM): 10.93%
Mean % ([2]; Receptor M5, 10 μM, mean of Inhibition 1-4): 16.99%
Inhibition 1 ([3]; Receptor D4, 10 μM): 1.91%
Inhibition 2 ([3]; Receptor D4, 10 μM): -16.35%
Inhibition 3 ([3]; Receptor D4, 10 μM): 0.67%
Inhibition 4 ([3]; Receptor D4, 10 μM): 12.24%
Mean % ([3]; Receptor D4, 10 μM, mean of Inhibition 1-4): -0.38%
Inhibition 1 ([4]; Receptor 5-HT1B, 10 μM): 31.06%
Inhibition 2 ([4]; Receptor 5-HT1B, 10 μM): 11.01%
Inhibition 3 ([4]; Receptor 5-HT1B, 10 μM): 10.42%
Inhibition 4 ([4]; Receptor 5-HT1B, 10 μM): 12.97%
Mean % ([4]; Receptor 5-HT1B, 10 μM, mean of Inhibition 1-4): 16.37%
Inhibition 1 ([5]; Receptor 5-HT2A, 10 μM): 90.4%
Inhibition 2 ([5]; Receptor 5-HT2A, 10 μM): 85.14%
Inhibition 3 ([5]; Receptor 5-HT2A, 10 μM): 80.37%
Inhibition 4 ([5]; Receptor 5-HT2A, 10 μM): 89.25%
Mean % ([5]; Receptor 5-HT2A, 10 μM, mean of Inhibition 1-4): 86.29%
Inhibition 1 ([6]; Receptor SERT, 10 μM): 82.19% and 71%
Inhibition 2 ([6]; Receptor SERT, 10 μM): 70.62% and 68.78%
Inhibition 3 ([6]; Receptor SERT, 10 μM): 68.77% and 67.79%
Inhibition 4 ([6]; Receptor SERT, 10 μM): 72.64% and 73.98%
Mean % ([6]; Receptor SERT, 10 μM, mean of Inhibition 1-4): 73.56% and 70.39%
Inhibition 1 ([7]; Receptor H1, 10 μM): 34.93%
Inhibition 2 ([7]; Receptor H1, 10 μM): 33.32%
Inhibition 3 ([7]; Receptor H1, 10 μM): 29.49%
Inhibition 4 ([7]; Receptor H1, 10 μM): 24.93%
Mean % ([7]; Receptor H1, 10 μM, mean of Inhibition 1-4): 30.67%
Inhibition 1 ([8]; Receptor KOR, 10 μM): -17.91%
Inhibition 2 ([8]; Receptor KOR, 10 μM): -11.2%
Inhibition 3 ([8]; Receptor KOR, 10 μM): -40.41%
Inhibition 4 ([8]; Receptor KOR, 10 μM): -19.03%
Mean % ([8]; Receptor KOR, 10 μM, mean of Inhibition 1-4): -22.14%
Inhibition 4 ([9]; Receptor PBR, 10 μM): 12.81% and 23.25%
